Measurements: patent US20120077737A1, “HEPATITIS C INHIBITOR COMPOUNDS” (priority 2009, published 2012)
Like-named read-outs stand apart in the source and are kept apart here.

How the values were obtained:
[1] = test system: HCV genotype 1a subgenomic replicon with NS3 resistance mutation R155K; assay: HCV replicon RNA replication assay, R155K 1a; format: cell-based, HCV genotype 1a (strain H77), Huh-7 cells; conditions: Hepatitis C virus, Huh-7, 72 h, read-out: R155K 1a Ec50 (nM)
[2] = test system: HCV genotype 1b subgenomic replicon with NS3 resistance mutation D168V; assay: HCV replicon RNA replication assay, D168V 1b; format: cell-based, HCV genotype 1b (Con-1), Huh-7 cells; conditions: Hepatitis C virus, Huh-7, 72 h, read-out: D168V 1b Ec50 (nM)
[3] = test system: HCV genotype 1a subgenomic replicon with NS3 resistance mutation D168V; assay: HCV replicon RNA replication assay, D168V 1a; format: cell-based, HCV genotype 1a (strain H77), Huh-7 cells; conditions: Hepatitis C virus, read-out: D168V 1a Ec50 (nM)
[4] = test system: HCVPV1a subgenomic replicon (wild type 1a); assay: HCV replicon RNA replication assay, wild type 1a; format: cell-based, HCV genotype 1a (strain H77), Huh-7 cells; conditions: Hepatitis C virus, read-out: WT 1a Ec50
[5] = test system: HCVPV1b subgenomic replicon (wild type 1b); assay: HCV replicon RNA replication assay, wild type 1b; format: cell-based, HCV genotype 1b (Con-1), Huh-7 cells; conditions: Hepatitis C virus, read-out: WT 1b Ec50
[6] = Table 1, luciferase replicon, Huh-7, 72 h

SMILES | EC50 [1] [nM] | EC50 [2] [nM] | EC50 ([3]; Huh-7, 72 h) [nM] | EC50 [4, 6] [nM] | EC50 [5, 6] [nM] | EC50 [3] [nM] | EC50 ([4]; Table 2, clinical comparators, wildtype genotype 1a) [nM] | EC50 ([5]; Table 2, clinical comparators, wildtype genotype 1b) [nM]
COc1c(F)ccc2c(O[C@@H]3C[C@H]4C(=O)N[C@]5(C(=O)NS(=O)(=O)C6(C)CC6)C[C@H]5/C=C\CCCCC[C@H](NC(=O)c5ccn(CCF)n5)C(=O)N4C3)cc(OC(C)C)nc12 [Compound 1021, (2R,6S,12Z,13aS,14aR,16aS)-6-({[1-(2-fluoroethyl)-1H-pyrazol-3-yl]carbonyl}amino)-2-{[7-fluoro-8-methoxy-2-(propan-2-yloxy)quinolin-4-yl]oxy}-N-[(1-methylcyclopropyl)sulfonyl]-5,16-dioxo-1,2,3,6,7,8,9,10,11,13a,14,15,16,16a-tetradecahydrocyclopropa[e]pyrrolo[1,2-a][1,4]diazacyclopentadecine-14a(5H)-carboxamide] | 1.9 | 0.53 | 0.93 | 0.34 | 0.48 |  |  | 
COc1ccc2c(O[C@@H]3C[C@H]4C(=O)N[C@]5(C(=O)NS(=O)(=O)C6(C)CC6)C[C@H]5/C=C\CCCCC[C@H](NC(=O)c5cnn(C)n5)C(=O)N4C3)cc(OC(C)C)nc2c1C [Compound 1006, (2R,6S,12Z,13aS,14aR,16aS)-2-{[7-methoxy-8-methyl-2-(propan-2-yloxy)quinolin-4-yl]oxy}-N-[(1-methylcyclopropyl)sulfonyl]-6-{[(2-methyl-2H-1,2,3-triazol-4-yl)carbonyl]amino}-5,16-dioxo-1,2,3,6,7,8,9,10,11,13a,14,15,16,16a-tetradecahydrocyclopropa[e]pyrrolo[1,2-a][1,4]diazacyclopentadecine-14a(5H)-carboxamide] | 2.2 | 0.17 | 9.6 | 0.19 | 0.18 |  |  | 
CC[C@@H]1C[C@]1(NC(=O)[C@@H]1C[C@@H]2CN1C(=O)[C@H](C(C)(C)C)NC(=O)OCC(C)(C)CCCCc1cccc3c1CN(C3)C(=O)O2)C(=O)NS(=O)(=O)C1CC1 [reference compound] |  |  |  |  |  | 3900 | 0.4 | 1.2
COc1c(F)ccc2c(O[C@@H]3C[C@H]4C(=O)N[C@]5(C(=O)NS(=O)(=O)C6(C)CC6)C[C@H]5/C=C\CCCCC[C@H](NC(=O)c5ccn(C(F)F)n5)C(=O)N4C3)cc(OC(C)C)nc12 [Compound 1027, (2R,6S,12Z,13aS,14aR,16aS)-6-({[1-(difluoromethyl)-1H-pyrazol-3-yl]carbonyl}amino)-2-{[7-fluoro-8-methoxy-2-(propan-2-yloxy)quinolin-4-yl]oxy}-N-[(1-methylcyclopropyl)sulfonyl]-5,16-dioxo-1,2,3,6,7,8,9,10,11,13a,14,15,16,16a-tetradecahydrocyclopropa[e]pyrrolo[1,2-a][1,4]diazacyclopentadecine-14a(5H)-carboxamide] | 4.7 | 0.39 | 2.2 | 0.47 | 0.33 |  |  | 
COc1c(F)ccc2c(O[C@@H]3C[C@H]4C(=O)N[C@]5(C(=O)NS(=O)(=O)C6(C)CC6)C[C@H]5/C=C\CCCCC[C@H](NC(=O)c5ccn(C)n5)C(=O)N4C3)cc(OC(C)C)nc12 [Compound 1013, (2R,6S,12Z,13aS,14aR,16aS)-2-{[7-fluoro-8-methoxy-2-(propan-2-yloxy)quinolin-4-yl]oxy}-N-[(1-methylcyclopropyl)sulfonyl]-6-{[(1-methyl-1H-pyrazol-3-yl)carbonyl]amino}-5,16-dioxo-1,2,3,6,7,8,9,10,11,13a,14,15,16,16a-tetradecahydrocyclopropa[e]pyrrolo[1,2-a][1,4]diazacyclopentadecine-14a(5H)-carboxamide] | 1.6 | 0.45 | 0.75 | 0.5 | 0.37 |  |  | 
COc1c(F)ccc2c(O[C@@H]3C[C@H]4C(=O)N[C@]5(C(=O)NS(=O)(=O)C6(C)CC6)C[C@H]5/C=C\CCCCC[C@H](NC(=O)c5ccn(CC(F)F)n5)C(=O)N4C3)cc(OC(C)C)nc12 [Compound 1022, (2R,6S,12Z,13aS,14aR,16aS)-6-({[1-(2,2-difluoroethyl)-1H-pyrazol-3-yl]carbonyl}amino)-2-{[7-fluoro-8-methoxy-2-(propan-2-yloxy)quinolin-4-yl]oxy}-N-[(1-methylcyclopropyl)sulfonyl]-5,16-dioxo-1,2,3,6,7,8,9,10,11,13a,14,15,16,16a-tetradecahydrocyclopropa[e]pyrrolo[1,2-a][1,4]diazacyclopentadecine-14a(5H)-carboxamide] | 1.3 | 0.62 | 0.97 | 0.42 | 0.41 |  |  | 
COc1ccc2c(O[C@@H]3C[C@H]4C(=O)N[C@]5(C(=O)NS(=O)(=O)C6(C)CC6)C[C@H]5/C=C\CCCCC[C@H](NC(=O)c5ccc(C(C)(C)O)s5)C(=O)N4C3)cc(OC(C)C)nc2c1C [Compound 1020, (2R,6S,12Z,13aS,14aR,16aS)-6-({[5-(2-hydroxypropan-2-yl)thiophen-2-yl]carbonyl}amino)-2-{[7-methoxy-8-methyl-2-(propan-2-yloxy)quinolin-4-yl]oxy}-N-[(1-methylcyclopropyl)sulfonyl]-5,16-dioxo-1,2,3,6,7,8,9,10,11,13a,14,15,16,16a-tetradecahydrocyclopropa[e]pyrrolo[1,2-a][1,4]diazacyclopentadecine-14a(5H)-carboxamide] | 2.4 | 0.39 | 3.7 | 0.86 | 0.66 |  |  | 
COc1ccc2c(O[C@@H]3C[C@H]4C(=O)N[C@]5(C(=O)NS(=O)(=O)C6CC6)C[C@H]5/C=C\CCCCC[C@H](NC(=O)c5ccn(CC(F)(F)F)n5)C(=O)N4C3)cc(OC(C)C)nc2c1C [Compound 1012, (2R,6S,12Z,13aS,14aR,16aS)-N-(cyclopropylsulfonyl)-2-{[7-methoxy-8-methyl-2-(propan-2-yloxy)quinolin-4-yl]oxy}-5,16-dioxo-6-({[1-(2,2,2-trifluoroethyl)-1H-pyrazol-3-yl]carbonyl}amino)-1,2,3,6,7,8,9,10,11,13a,14,15,16,16a-tetradecahydrocyclopropa[e]pyrrolo[1,2-a][1,4]diazacyclopentadecine-14a(5H)-carboxamide] |  | 0.31 | 1.9 | 0.29 | 0.24 |  |  | 
Cc1c(O)ccc2c(O[C@@H]3C[C@H]4C(=O)N[C@]5(C(=O)NS(=O)(=O)C6(C)CC6)C[C@H]5/C=C\CCCCC[C@H](NC(=O)c5ccn(C)n5)C(=O)N4C3)cc(OC(C)C)nc12 [Compound 1015, (2R,6S,12Z,13aS,14aR,16aS)-2-{[7-hydroxy-8-methyl-2-(propan-2-yloxy)quinolin-4-yl]oxy}-N-[(1-methylcyclopropyl)sulfonyl]-6-{[(1-methyl-1H-pyrazol-3-yl)carbonyl]amino}-5,16-dioxo-1,2,3,6,7,8,9,10,11,13a,14,15,16,16a-tetradecahydrocyclopropa[e]pyrrolo[1,2-a][1,4]diazacyclopentadecine-14a(5H)-carboxamide] | 0.95 | 0.96 | 6.9 | 0.96 | 1.3 |  |  | 
CC(C)Oc1cc(O[C@@H]2C[C@H]3C(=O)N[C@]4(C(=O)NS(=O)(=O)C5(C)CC5)C[C@H]4/C=C\CCCCC[C@H](NC(=O)c4ccn(C)n4)C(=O)N3C2)c2ccc(Cl)c(Cl)c2n1 [Compound 1025, (2R,6S,12Z,13aS,14aR,16aS)-2-{[7,8-dichloro-2-(propan-2-yloxy)quinolin-4-yl]oxy}-N-[(1-methylcyclopropyl)sulfonyl]-6-{[(1-methyl-1H-pyrazol-3-yl)carbonyl]amino}-5,16-dioxo-1,2,3,6,7,8,9,10,11,13a,14,15,16,16a-tetradecahydrocyclopropa[e]pyrrolo[1,2-a][1,4]diazacyclopentadecine-14a(5H)-carboxamide] | 9.3 | 0.11 | 3.8 | 0.22 | 0.17 |  |  | 
COc1ccc2c(O[C@@H]3C[C@H]4C(=O)N[C@]5(C(=O)NS(=O)(=O)C6(C)CC6)C[C@H]5/C=C\CCCCC[C@H](NC(=O)c5ccn(C)n5)C(=O)N4C3)cc(OCC(F)(F)F)nc2c1C [Compound 1029, (2R,6S,12Z,13aS,14aR,16aS)-2-{[7-methoxy-8-methyl-2-(2,2,2-trifluoroethoxy)quinolin-4-yl]oxy}-N-[(1-methylcyclopropyl)sulfonyl]-6-{[(1-methyl-1H-pyrazol-3-yl)carbonyl]amino}-5,16-dioxo-1,2,3,6,7,8,9,10,11,13a,14,15,16,16a-tetradecahydrocyclopropa[e]pyrrolo[1,2-a][1,4]diazacyclopentadecine-14a(5H)-carboxamide] | 1.5 | 0.25 | 9.5 |  |  |  |  | 
Cc1c(Cl)ccc2c(O[C@@H]3C[C@H]4C(=O)N[C@]5(C(=O)NS(=O)(=O)C6(C)CC6)C[C@H]5/C=C\CCCCC[C@H](NC(=O)c5ccn(C)n5)C(=O)N4C3)cc(OC(C)C)nc12 [Compound 1003, (2R,6S,12Z,13aS,14aR,16aS)-2-{[7-chloro-8-methyl-2-(propan-2-yloxy)quinolin-4-yl]oxy}-N-[(1-methylcyclopropyl)sulfonyl]-6-{[(1-methyl-1H-pyrazol-3-yl)carbonyl]amino}-5,16-dioxo-1,2,3,6,7,8,9,10,11,13a,14,15,16,16a-tetradecahydrocyclopropa[e]pyrrolo[1,2-a][1,4]diazacyclopentadecine-14a(5H)-carboxamide] | 7.7 | 0.12 | 6.9 | 0.24 | 0.21 |  |  | 
